# According to patent publication US5298494A, “Monosaccharides having anti-proliferation and anti-inflammatory activity, compositions and uses thereof” (Greenwich Pharmaceuticals Incorporated, priority 1993, dated 1994):
# Where two headings read alike, the source gives them in different places.
# Key:
# [1] = tested on: Interleukin 1 (IL-1) production by peritoneal macrophages; assay: IL-1 Assay: production of interleukin-1 by peritoneal macrophages (thymocyte bioassay); assay type: cell-based, mouse (C57B1/6); set-up: inhibition: dose or concentration left out as unconfirmed
# Excerpt: Interleukin 1 (IL-1) is a potent immunomodulatory cytokine that has a broad range of pro-inflammatory activities. IL-1 is known to be produced by activated accessory cells such as macrophages. Accessory cell production of IL-1 results in the activation and proliferation of T and B lymphocytes. Therefore, by inhibiting macrophage activation and production of IL-1, the activation and proliferation of the cellular effectors of inflammation can be modulated. Compounds of the invention were screened for inhibitory activity in a classical IL-1 assay. Six to 8 week old male C57B1/6 mice were purchased from Harlan Sprague Dawley. Peritoneal macrophages were elicited by the administration to mice of a single intraperitoneal injection of 0.2 ml of complete Freund's adjuvant. After 48 hours, elicited macrophages were removed from the mice by lavage with the use of Hank's balanced salt solution. […] To the macrophage cultures were added various doses of the compounds of the invention and 10 ug/ml of the macrophage activator lipopolysaccharide (to stimulate IL-1 production). Control cultures consisted of macrophages, lipopolysaccharide and culture medium containing various doses of DMSO only. […] The amount of IL-1 produced in the individual wells was determined in a bioassay for IL-1. This involved the removal of thymuses from mice less than 8 weeks of age. Thymocytes were isolated by passing each thymus through a stainless steel mesh screen. […] After 18 hours cells were harvested and radioactive incorporation (as a measure of cell proliferation) was quantitated in a liquid scintillation counter. The students t test was used to determine the significance of the difference between experimental and control values.
# [2] = tested on: T lymphocytes (normal mouse spleen cells) stimulated with ConA; assay: Mouse Spleen Cell ConA Blastogenesis Assay; assay type: cell-based, mouse (C57Bl/6); conditions: Mus musculus, T-lymphocyte; for inhibition at 0.1 µg/mL: compound 0.1 ug/ml; for inhibition at 1 µg/mL: compound 1 ug/ml; for inhibition at 2.5 µg/mL: compound 2.5 ug/ml; for inhibition at 10 µg/mL: compound 10 ug/ml; for inhibition at 25 µg/mL: compound 25 ug/ml; for inhibition at 100 µg/mL: compound 100 ug/ml
# [3] = ConA 1 ug/ml, read-out: % change from control, ConA blastogenic response
# [4] = ConA 4 ug/ml, read-out: % change from control, ConA blastogenic response
smiles,measurement,setting,value
"CCCCCC#CCOC[C@H]1O[C@@]2(OC)COC(C)(C)O[C@H]2[C@@H]1OCC#CCCCCC [Id, methyl 1,3-O-isopropylidene-4,6-di-O-(2-octynyl)-α-D-fructofuranoside]",^3 H-Thymidine uptake by thymocytes,[1]; 0.001 ug/ml,"10,850 ± 995 cpm"
same,^3 H-Thymidine uptake by thymocytes,[1]; 0.01 ug/ml,"13,080 cpm"
same,^3 H-Thymidine uptake by thymocytes,[1]; 0.1 ug/ml,"13,190 ± 560 cpm"
same,^3 H-Thymidine uptake by thymocytes,[1]; 1 ug/ml,"9,880 ± 1,029 cpm"
same,^3 H-Thymidine uptake by thymocytes,[1]; 2.5 ug/ml,"6,400 ± 1,070 cpm"
same,^3 H-Thymidine uptake by thymocytes,[1]; 10 ug/ml,"3,050 ± 191 cpm"
same,^3 H-Thymidine uptake by thymocytes,[1]; 25 ug/ml,"2,537 ± 182 cpm"
same,^3 H-Thymidine uptake by thymocytes,[1]; 100 ug/ml,"1,930 cpm"
same,inhibition at 0.001 µg/mL,"[1]; Mus musculus, Peritoneal macrophage, 0.001 ug/ml, read-out: % effect on IL-1 production (thymidine uptake by thymocytes)",0%
same,inhibition at 0.01 µg/mL,"[1]; Mus musculus, Peritoneal macrophage, 0.01 ug/ml, read-out: % effect on IL-1 production (thymidine uptake by thymocytes)",-20%
same,inhibition at 0.1 µg/mL,"[1]; Mus musculus, Peritoneal macrophage, 0.1 ug/ml, read-out: % effect on IL-1 production (thymidine uptake by thymocytes)",-19%
same,inhibition at 2.5 µg/mL,"[1]; Mus musculus, Peritoneal macrophage, 2.5 ug/ml, read-out: % effect on IL-1 production (thymidine uptake by thymocytes)",44%
same,inhibition at 10 µg/mL,"[1]; Mus musculus, Peritoneal macrophage, 10 ug/ml, read-out: % effect on IL-1 production (thymidine uptake by thymocytes)",70%
same,inhibition at 25 µg/mL,"[1]; Mus musculus, Peritoneal macrophage, 25 ug/ml, read-out: % effect on IL-1 production (thymidine uptake by thymocytes)",71%
same,inhibition at 100 µg/mL,"[1]; Mus musculus, Peritoneal macrophage, 100 ug/ml, read-out: % effect on IL-1 production (thymidine uptake by thymocytes)",78%
same,inhibition,"[1]; Mus musculus, Peritoneal macrophage, read-out: % effect on IL-1 production (thymidine uptake by thymocytes)",10%
same,inhibition at 0.01 µg/mL,"[2]; ConA 1 ug/ml, 0.01 ug/ml, read-out: % Change from Control (Table II)",9%
same,inhibition at 0.01 µg/mL,"[2]; ConA 1 ug/ml, compound 0.01 ug/ml, read-out: % change from control, ConA blastogenic response",10%
same,inhibition at 0.1 µg/mL,[2]; [3],25%
same,inhibition at 1 µg/mL,[2]; [3],67%
same,inhibition at 2.5 µg/mL,[2]; [3],91%
same,inhibition at 10 µg/mL,[2]; [3],100%
same,inhibition at 25 µg/mL,[2]; [3],100%
same,inhibition at 100 µg/mL,[2]; [3],99%
same,inhibition at 0.01 µg/mL,"[2]; ConA 4 ug/ml, 0.01 ug/ml, read-out: % Change from Control (Table II)",16%
same,inhibition at 0.01 µg/mL,"[2]; ConA 4 ug/ml, compound 0.01 ug/ml, read-out: % change from control, ConA blastogenic response",14%
same,inhibition at 0.1 µg/mL,[2]; [4],27%
same,inhibition at 1 µg/mL,[2]; [4],75%
same,inhibition at 2.5 µg/mL,[2]; [4],94%
same,inhibition at 10 µg/mL,[2]; [4],100%
same,inhibition at 25 µg/mL,[2]; [4],100%
same,inhibition at 100 µg/mL,[2]; [4],99%
